Experimental data published in ChEMBL document CHEMBL3596107, “Design, synthesis and evaluation of a series of acyclic fleximer nucleoside analogues with anti-coronavirus activity” (Bioorg Med Chem Lett, 2015).

Columns and labels:
[1] = tested on: Middle East respiratory syndrome-related coronavirus; assay: Antiviral activity against MERS-CoV EMC/2012 infected in human HuH7 cells assessed as inhibition of virus-induced cytopathic effect after 2 days by CellTiter 96 AQueous Non-Radioactive Cell Proliferation Assay; type: functional, cell-based; conditions: EMC/2012, Huh-7, 48 h
[2] = Antiviral activity against Human coronavirus NL63 infected in African green monkey Vero118 cells assessed as inhibition of virus-induced cytopathic effect after 5 days by microscopic analysis; type: functional; conditions: Human coronavirus NL63, 120 h
[3] = Cytotoxicity against mock-infected human HuH7 cells assessed as inhibition of cell survival after 2 days by CellTiter 96 AQueous Non-Radioactive Cell Proliferation Assay; type: cell-based; conditions: huh-7, 48 h
[4] = Cytotoxicity against mock-infected African green monkey Vero118 cells assessed as inhibition of cell survival after 5 days by microscopic analysis; type: cell-based; conditions: chlorocebus sabaeus; for CC50: 120 h
[5] = Cytotoxicity against mock-infected African green monkey Vero E6 cells assessed as inhibition of cell survival after 3 days by CellTiter 96 AQueous Non-Radioactive Cell Proliferation Assay; type: cell-based; conditions: chlorocebus sabaeus, vero c1008, 72 h
Vero = assay: Cytotoxicity against mock-infected African green monkey Vero cells assessed as inhibition of cell survival after 3 days by CellTiter 96 AQueous Non-Radioactive Cell Proliferation Assay; type: cell-based; conditions: chlorocebus sabaeus, 72 h
[6] = Antiviral activity against SARS-CoV Frankfurt 1 infected in African green monkey Vero E6 cells assessed as inhibition of virus-induced cytopathic effect after 3 days by CellTiter 96 AQueous Non-Radioactive Cell Proliferation Assay; type: functional, cell-based, SARS coronavirus Frankfurt 1
[7] = tested on: Middle East respiratory syndrome-related coronavirus; assay: Antiviral activity against MERS-CoV EMC/2012 infected in African green monkey Vero cells assessed as inhibition of virus-induced cytopathic effect after 3 days by CellTiter 96 AQueous Non-Radioactive Cell Proliferation Assay; type: functional, cell-based; conditions: EMC/2012, Vero, 72 h
SARS-CoV = assay: Antiviral activity against SARS-CoV assessed as inhibition of viral replication; type: functional, Severe acute respiratory syndrome-related coronavirus

| SMILES | EC50 [1] [µM] | EC50 [2] [µM] | CC50 [3] [µM] | CC50 [4] [µM] | CC50 [5] [µM] | CC50 (Vero) [µM] | EC50 ([6]; vero e6) | EC50 [7] [µM] | INH (SARS-CoV) [µg/mL] | CC50 at 120 h ([4]; mock-infected Vero118 cells) [µM] | EC50 ([6]; Severe acute respiratory syndrome-related coronavirus, Vero C1008, 72 h, read-out: EC50) [µM] |
| --- | --- | --- | --- | --- | --- | --- | --- | --- | --- | --- | --- |
| COc1nc(N)ncc1-c1cn(COCCO)cn1 | 27 | 8.8 | 149 | 120 | 138 | 71 | Not Active | 23 |  |  |  |
| NC(=O)c1ncn([C@@H]2O[C@H](CO)[C@@H](O)[C@H]2O)n1 [RIBAVIRIN] |  |  |  |  |  |  |  |  | 500 |  |  |
| OCCOCn1cnc(-c2cnc(O)nc2O)c1 |  | 92 |  | > 200 |  |  |  |  |  |  |  |
| Nc1nc2c(ncn2COCCO)c(=O)[nH]1 [ACYCLOVIR] | > 1000 | > 100 | > 1000 |  | > 1000 | > 1000 |  | > 1000 |  | > 100 | > 1000 |
| Nc1ncc(-c2cn(COCCO)cn2)c(O)n1 |  | > 200 |  | > 200 |  |  |  |  |  |  |  |
